This is an account of results in paper PMC3247180, “Polyamidoamine (PAMAM) dendrimer conjugate specifically activates the A3 adenosine receptor to improve post-ischemic/reperfusion function in isolated mouse hearts” (BMC Pharmacology, 2011).

In experiment [1] the target is T1, mA3AR (Mus musculus, UniProt Q61618).
T1 construct: expressed in transfected cells; host or cells: HEK293
T1 sequence (Q61618 1-319): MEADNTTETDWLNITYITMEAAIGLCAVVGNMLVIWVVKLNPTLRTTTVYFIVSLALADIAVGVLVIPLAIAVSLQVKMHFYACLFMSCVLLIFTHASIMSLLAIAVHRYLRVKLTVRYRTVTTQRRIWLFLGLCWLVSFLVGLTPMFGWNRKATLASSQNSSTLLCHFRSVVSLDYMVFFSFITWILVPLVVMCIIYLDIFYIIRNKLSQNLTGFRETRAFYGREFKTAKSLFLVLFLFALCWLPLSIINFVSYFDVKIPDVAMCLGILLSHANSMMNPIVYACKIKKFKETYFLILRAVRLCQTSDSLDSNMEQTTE
The experiment can be described thus: Radioligand ([125I]I-AB-MECA) competition binding, mA3AR. As to the method: (§1) The competition assays were performed as previously published. Briefly, to prepare the membranes, HEK293 cells stably expressing recombinant mARs were harvested and homogenized in 10 mM Na^+-HEPES buffer (pH 7.4) with 10 mM EDTA and 0.1 mM benzamidine. The cell lysates were centrifuged (35,000 × g for 25 min; 4°C), and the pellets were resuspended in 10 mM Na^+-HEPES buffer (pH 7.4) with 1 mM EDTA and 0.1 mM benzamidine. The suspensions were homogenized and centrifuged again (35,000 × g for 25 min; 4°C). The resultant pellets were re-suspended in buffer containing 10% sucrose and stored at -80°C until use. For the radioligand binding assays, 50 μg cell membranes (100 μL) were incubated in 10 mM Na^+-HEPES buffer (pH 7.4) with 5 mM MgCl2, 5 U/mL ADA, and [^125I]I-AB-MECA as radioligand. The competing ligands of interest were added at various concentration ranges. The IC50 values were calculated using nonlinear regression analysis by fitting the data to the following equation: binding=nonspecific binding+total binding-nonspecific binding∕1+10^x-logIC50 Inhibition constant (Ki) values were calculated using the Cheng-Prusoff equation [36]. The concentration of MRS5246 reflected the concentration of the dendrimeric complex, not the individual ligand moieties. Therefore, all binding Ki values of this dendrimer are to be considered as Kiapp values.

Experiment [2] has as its target T2, mA1AR (Mus musculus, UniProt Q60612).
T2 construct: expressed in transfected cells; host or cells: HEK293
T2 sequence (Q60612 1-326): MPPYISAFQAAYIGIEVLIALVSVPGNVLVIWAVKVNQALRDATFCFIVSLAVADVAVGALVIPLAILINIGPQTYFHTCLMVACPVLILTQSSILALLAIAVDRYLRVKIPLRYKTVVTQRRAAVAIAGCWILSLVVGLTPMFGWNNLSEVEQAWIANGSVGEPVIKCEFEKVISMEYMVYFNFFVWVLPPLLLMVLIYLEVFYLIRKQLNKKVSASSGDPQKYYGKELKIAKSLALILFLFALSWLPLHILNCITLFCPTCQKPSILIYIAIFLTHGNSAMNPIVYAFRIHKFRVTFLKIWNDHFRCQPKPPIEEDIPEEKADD
Briefly: Radioligand ([125I]I-AB-MECA) competition binding, mA1AR. The note with it: recombinant mAR on HEK293 cell membranes, Kiapp for the dendrimer conjugate, read-out: mA1AR, Ki or Kiapp. As to the method:
as §1

In experiment [3] the target is T1, mA3AR. The experiment can be described thus: cAMP functional assay (inhibition of forskolin-stimulated cAMP production), mA3AR in HEK293 cells. In kind it is cell-based. As to the method:
(§2) The assays of cAMP (3',5'-cyclic adenosine monophosphate) were performed utilizing a modified protocol published by Nordstedt and colleagues, whereby cAMP content was determined by displacement of [^3H]cAMP binding to regulatory subunits of protein kinase A in bovine adrenal extracts. HEK293 cells heterologously expressing the mA3AR were prepared by plating 2.5 × 10^5 cells per well in 24-well plates and cultured overnight in complete media (DMEM with 10% fetal bovine serum/PenStrep/0.4 mg/mL G418) at 37°C. The cells were washed with DMEM/25 mM HEPES (pH 7.4) followed by incubation in DMEM/25 mM HEPES containing 20 μM Ro 20-1274 (phosphodiesterase inhibitor), 1 U/mL ADA and a combination of two selective A2BAR antagonists (300 nM CVT-6883 and 300 nM PSB603) at 37°C for 15 min. Forskolin (20 μM) to induce cAMP production and the test compounds of interest were then simultaneously added. A concentration range of ligands or dendrimer conjugates was tested in triplicate to inhibit cAMP production via activation of A1 or A3 ARs. After incubation at 37°C for 15 min, the media was aspirated, and the cells were lysed with 200 μL ice cold 0.1 M HCl on a shaker at 4°C for 30 min. The lysates were collected and cAMP levels in the acid extract were determined by competitive binding assays as follows. Each lysate sample and cAMP standard were diluted in 0.1 M HCl and subsequently transferred to polypropylene tubes (100 μL). [^3H]cAMP (12,000 cpm/100 μL water/tube) and protein extract from bovine adrenal tissue were then added (240 μg adrenal protein/tube at a concentration of 0.6 μg/μL, in the binding protein buffer: 100 mM Tris-HCl, 250 mM NaCl, 10 mM EDTA, 0.1% 2-mercaptoethanol, pH 8.0), with the extract isolated from bovine adrenal glands as described by Nordstedt, et al. to provide the cAMP binding substrate. The samples were incubated at 4°C for 2.5 hours and harvested through GF/C glass microfiber filters using a cell harvester (Brandel, Gaithersburg, MD) and counted in scintillation cocktail. […]

For experiment [4], the target named is T2, mA1AR. The experiment can be described thus: cAMP functional assay (inhibition of forskolin-stimulated cAMP production), mA1AR in HEK293 cells. In kind it is cell-based. The procedure: as §2, with “After incubation at 37°C for 15 min, the media was aspirated, and the cells were lysed with 200 μL ice cold 0.1 M HCl on a shaker at 4°C for 30 min.” left out, “Each lysate sample and cAMP standard were diluted in 0.1 M HCl and subsequently transferred to polypropylene tubes (100 μL). [^3H]cAMP (12,000 cpm/100 μL water/tube) and protein extract from bovine adrenal tissue were then added (240 μg adrenal protein/tube at a concentration of 0.6 μg/μL, in the binding protein buffer: 100 mM Tris-HCl, 250 mM NaCl, 10 mM EDTA, 0.1% 2-mercaptoethanol, pH 8.0), with the extract isolated from bovine adrenal glands as described by Nordstedt, et al. to provide the cAMP binding substrate.” left out

Experiment [5] has as its system isolated mouse hearts. The experiment can be described thus: Langendorff-perfused isolated mouse heart model of I/R (wild-type). As to the method:
MRS5246 and MRS5233 were tested for effects on functional improvement in isolated mouse hearts subjected to global ischemia and reperfusion. The agonists were infused into the coronary circulation of the hearts for 10 min immediately before 20 min of global ischemia. The functional recovery parameters (left ventricular developed pressure [LVDP], rate of contraction [dP/dtmax], rate of relaxation [dP/dtmin], and coronary flow [CF; mL/min/g]) of the hearts were assessed throughout reperfusion and after 45 min of reperfusion and compared to those of control hearts.
Isolated mouse heart experiments were performed as described previously. In brief, hearts were isolated from C57Bl/6J male mice and cannulated via the aorta and perfused in a retrograde fashion by Krebs-Henseleit buffer. Pressure measurements were obtained via a fluid-filled balloon inserted into the left ventricle via the mitral valve and connected to a pressure transducer. The hearts were immersed in warmed perfusion buffer to maintain the hearts at 37°C, and the balloons were inflated to achieve constant end-diastolic pressures of 5 to 10 mm Hg.
The hearts were perfused for 20 min to achieve stabilization and then paced at 420 beats/min for baseline functional measurements. Global ischemia was achieved by closing an in-line stopcock to stop perfusion for 20 min followed by 45 min of reperfusion by re-opening the stopcock. To examine the effect of the ligands and dendrimer conjugates on functional recovery, the hearts were perfused with buffer containing the indicated concentrations of compounds for 10 min immediately before ischemia.
All data are reported as means ± S.E.M. Functional recovery data in the isolated heart studies were analyzed by two-way repeated measures ANOVA. […] Left ventricular functional recoveries at 45 min of reperfusion were compared using one-way analysis of variance followed by Student's t test with the Bonferroni correction or an unpaired Student's t test, as appropriate. P < 0.05 was statistically significant.

Experiment [6] addresses hA3AR. The note with it: ref [13],[14]; cited from earlier work.
Experiment [7] has as its target hA2AAR. Set-up: method as in PMID 19499950, PMID 20036562. As to conditions: ref [13],[14]; cited from earlier work.
The subject of experiment [8] is hA1AR. Details: method as in PMID 19499950, PMID 20036562. As to conditions: at 10 μM; ref [13],[14]; cited from earlier work.

Entries after “also recorded” stand apart in the source; their conditions may differ.

For orientation: IC50 means the concentration that inhibits the measured activity by half. What is called EC50 is the midpoint of the concentration-response curve. As to `CNC(=O)[C@@]12C[C@@H]1[C@@H](n1cnc3c(NCc4cccc(Cl)c4)nc(C#CCCCCc4cn(CCNC(C)=O)nn4)nc31)[C@H](O)[C@@H]2O` [MRS5233], the Ki in experiment [1] ([125I]I-AB-MECA, recombinant mAR on HEK293 cell membranes, Kiapp for the dendrimer conjugate, read-out: mA3AR, Ki or Kiapp) was 3.94 ± 0.31 nM; in experiment [2], 665 ± 70 nM; in experiment [6], 22.3 ± 1.6 nM; in experiment [7], 2440 ± 320 nM. Besides, the “fold greater affinity at mA3AR than at hA3AR” value in experiment [1] (mouse Ki vs reported human Ki) is on record as 5.7 fold. In addition, in experiment [1] (mouse receptors, ratio of binding Ki), the “Selectivity (A1 /A3)” value is 169-fold. For the same compound, in experiment [3] (HEK293 cells overexpressing recombinant mARs), the “agonist efficacy in cAMP assay” value is reported as “full agonists”. Besides, the IC50 in experiment [3] (HEK293 cells, forskolin-stimulated) was found to be 4 nM. In addition, the EC50 in experiment [3] (HEK293 cells, forskolin-stimulated, as printed in Figure 3, read-out: EC50, cAMP functional assay, mouse A3AR) turned out to be 4 ± 0.3 nM. Besides, the “activity at the mA1AR in cAMP assay” value in experiment [4] (at 100 μM) was “inactive”. Further, the “inhibition of cAMP production at the A1AR” value in experiment [4] (up to 0.1 mM) is on record as “lacked inhibition”. The “recovery of LVDP throughout reperfusion vs control” value in experiment [5] (1 nM) is listed as “did not; also recorded: trend in improving LVDP over control”; in experiment [5] (10 nM) it was “significant improvement”. For the same compound, the “recovery of rates of relaxation and contraction at 45 min reperfusion vs control” value in experiment [5] (1 nM) and in experiment [5] (10 nM) was “significantly better” in each case. For the same compound, in experiment [5] (1 and 10 nM (MRS5246 in Figure 6 also 0.1 nM), infused 10 min before ischemia), the “functional recovery after 20 min ischemia/45 min reperfusion compared to control” value was “improved functional recovery compared to control in a concentration-dependent manner; also recorded: effective at increasing functional recovery; also recorded: significant protection starting at one nanomolar”. The “inhibition of radioligand binding at hA1AR” value in experiment [8] is 12 ± 4%.
